Experimental data published in patent US6432979B1, “Method of treating or inhibiting colonic polyps and colorectal cancer” (American Cyanamid Company, priority 1999, dated 2002).

System: intestinal polyps (adenomas)
Assay: in vivo standard pharmacological test procedure emulating familial adenomatous polyps (FAP) using the Min mouse; polyp count
Parameters: species or system Min mouse (C57BL/6J-Min/+)
Conditions: for Number of Polyps: 60 days
From the text: The procedure described below emulates familial adenomatous polyps (FAP) in humans using the Min mouse (C57BL/6J-Min/+), which is a strain which has lost […] copies of the APC gene. These animals develop multiple intestinal polyps (adenomas) that ultimately progress to form adenocarcinomas. The polyps that develop in Min mice express EGFR and have activated COX-2. […] The following briefly describes the procedure used and the results obtained in this standard pharmacological test procedure.
The animals were treated for 60 days. The food was weighed once per week to determine consumption, and the animals also weighed weekly. On day 61, the animals were euthanized with CO2 inhalation, and the entire intestinal tract from stomach to anus was removed. The intestinal tract was injected with Bouins fixative, and allowed to fix for several days. The intestinal tracts were then opened and the number of polyps counted. Statistical analysis was performed using the Student's t-Test; a p value of ≦0.05 is considered statistically significant.
The above standard pharmacological test procedure was run again using (4-dimethylamino-but-2-enoic acid [4-(3-chloro-4-fluoro-phenylamino)-3-cyano-7-ethoxy-quinolin-6-yl]-amide as a representative EGFR kinase inhibitor, as follows. Test animals were divided into four treatment groups: Group I, control; Group II, (4-dimethylamino-but-2-enoic acid [4-(3-chloro-4-fluoro-phenylamino)-3-cyano-7-ethoxy-quinolin-6-yl]-amide Group III, sulindac; and Group IV, combination of sulindac and (4-dimethylamino-but-2-enoic acid [4-(3-chloro-4-fluoro-phenylamino)-3-cyano-7-ethoxy-quinolin 6-yl]-amide. The test compound was blended with a standard murine chow and animals were given ad libitum access to the food, in quantities corresponding to the following approximate daily dosages: Group II—20 mg/kg/(4-dimethylamino-but-2-enoic acid [4-(3-chloro-4-fluoro-phenylamino)-3-cyano-7-ethoxy-quinolin-6-yl]-amide, Group III—5 mg/kg/day sulindac; and Group IV—20 mg/kg/(4-dimethylamino-but-2-enoic acid [4-(3-chloro-4-fluoro-phenylamino)-3-cyano-7-ethoxy-quinolin-6-yl]-amide and 5 mg/kg/day sulindac. The animals were treated for 60 days. The food was weighed once per week to determnine consumption, and the animals also weighed weekly. On day 61, the animals were euthanized with CO2 inhalation, and the entire intestinal tract from stomach to anus was removed. The intestinal tract was injected with Bouins fixative, and allowed to fix for several days. The intestinal tracts were then opened and the number of polyps counted. Statistical analysis was performed using the Students t-Test; a p value of ≦0.05 is considered statistically significant.

SMILES | Number of Polyps (first run, 20 mg/kg/day sulindac in chow, counted day 61, control 32.3 ± 20.7) | Number of Polyps (third run, 5 mg/kg/day sulindac in chow, control 19.5 ± 14.1) | reduction of polyp numbers (in words) (third run, sulindac alone at the 5 mg/kg dose) | Number of Polyps (first run, 40 mg/kg/day in chow, counted day 61, control 32.3 ± 20.7)
CC1=C(CC(=O)O)c2cc(F)ccc2/C1=C\c1ccc([S+](C)[O-])cc1 (stereo not shown) [sulindac] | 10.0 ± 6.6 | 20.6 ± 11.8 | did not reduce polyp numbers at all | –
CC#CC(=O)Nc1ccc2ncnc(Nc3cccc(Br)c3)c2c1 | – | – | – | 15.6 ± 10.6
